For one experiment, the system named is senescent A549 cells. Nature of the experiment: Senescence assay: viability of senescent A549 cells. The class given is cell-based. The following applies: Homo sapiens, 24-72 hours incubation, viability by CellTiter-Glo or XTT, read-out: Absolute IC50 average A549_SEN IC50. In short, it runs like this:
(§1)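 A549 and HEPG2 cells made senescent by sublethal chemotherapy (bleomycin, gemcitabine, doxorubicin or 5-fluorouridine) plus recovery, verified by low EdU and high SA-β-Gal. Ten-point duplicate dosing for 24-72 h; viability by CellTiter-Glo or XTT versus untreated cells; absolute IC50 from four-parameter Hill fit.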
Background: Cellular ATP, detected with luciferase, serves as a proxy for viable cell number.

The subject of the next experiment is senescent HEPG2 cells. Nature of the experiment: Senescence assay: viability of senescent HEPG2 cells. It is filed as cell-based. As to conditions: Homo sapiens, 24-72 hours incubation, viability by CellTiter-Glo or XTT, read-out: Absolute IC50 average HEPG2_SEN IC50. In short, it runs like this:
as §1

The next experiment concerns the target T1, GPX4 (Homo sapiens, UniProt P36969).
T1 sequence (P36969 1-197): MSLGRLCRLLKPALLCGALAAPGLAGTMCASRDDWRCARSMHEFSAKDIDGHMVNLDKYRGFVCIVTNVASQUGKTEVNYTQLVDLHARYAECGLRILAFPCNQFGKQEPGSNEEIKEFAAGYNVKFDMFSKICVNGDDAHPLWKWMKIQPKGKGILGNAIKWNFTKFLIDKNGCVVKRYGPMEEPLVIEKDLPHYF
Kind of experiment: Competitive binding to GPX4 in A549 cells with biotinylated analog, streptavidin pull-down. The following applies: 2 μM for 2 hours before 2 μM compound 21 for 5 hours. On the set-up: host or cells: A549. It is filed as cell-based. Here is the method:
Binding of compounds 32 and 69 to the target protein GPX4 in cultured cells can be assessed by the use of biotinylated analogs such as compound 21 that retain their cellular activities. Cells or tissue simultaneously or sequentially exposed to compounds 32 and 69 and biotinylated analog 21 can be analyzed for exogenous biotinylated proteins and thereby enables the identification of cellular targets of compounds 32 and 69. The A549 cancer cell line (ATCC) was exposed to 2 μM of compounds 32 and 69 for 2 hours followed by the addition of 2 μM of compound 21 for 5 hours. Cells were collected and lysed by IGEPAL CA-630 and sodium dodecyl sulfate (SDS) in the presence of a protease inhibitor cocktail (4693132001, Roche). The soluble protein fraction was isolated and incubated with Streptavidin Mag Sepharose (28-9857-38, Cytiva) at 4° C. for 16 hours. The streptavidin-unbound fraction was collected allowing for the quantification of the proportion of GPX4 depleted by the biotinylated compound 21 relative to samples not treated with Streptavidin Mag Sepharose. Furthermore, biotinylated proteins were eluted from Streptavidin Mag Sepharose by head-denaturation in the presence of excess biotin (5 mM). […] Chemiluminescent following HRP substrate addition (34580, ThermoFisher) was detected by the ChemiDoc XRS+ System (Bio-Rad). […]

The next experiment deals with A549 cells. Kind of experiment: Lipid peroxidation assay by flow cytometry (BODIPY 581/591 C11). It is filed as cell-based, human. The following applies: 0.02, 0.2 and 2 μm, 18.5 hours. Here is the method:
Inhibition of the cellular activity of GPX4 can be estimated by changes in lipid peroxidation levels that can be detected by the oxidation of BODIPY 581/591 C11, a ratiometric fluorescent indicator reacting with free radicals produced during membrane peroxidation (Drummen et al., Free Radic Biol Med 2002 33 (4): 473-90; and Martinez et al., Methods Mol Biol 2020 2018:125-130). For a lipid peroxidation assay by flow cytometry, A549 cells were seeded at 333,000 cells per well in 12-well plates. On the following day, culture media was replaced with 1 mL media containing either DMSO or compound 32 (0.02, 0.2 and 2 μm), and cultures were incubated at 37° C. for 18.5 hours. Thirty minutes before the end of the incubation period, 2 μm BODIPY 581/591 C11 (D3861, Invitrogen) was added to cells. Following cell collection by trypsinization, cells were subjected to flow cytometry analysis (BD FACSAria), and gated for the live cell population, which was analyzed for fluorescence signal associated with the oxidized state of BODIPY 581/591 C11. The results are illustrated in FIG. 4.
Background: A flow cytometer gives signals particle by particle.

SMILES strings stand for the structures.

In the case of `C#CC(F)(F)[C@]1(O)CC[C@H]2[C@@H]3CCC4=CC(=NNC(=O)NC5CC5)CCC4=C3[C@H](c3ccc(C4CC4)cc3)C[C@@]21C` [Compound 32, N-cyclopropyl-2-((8S,11S,13S,14S,17S)-11-(4-cyclopropylphenyl)-17-(1,1-difluoroprop-2-yn-1-yl)-17-hydroxy-13-methyl-1,2,6,7,8,11,12,13,14,15,16,17-dodecahydro-3H-cyclopenta[a]phenanthren-3-ylidene)hydrazine-1-carboxamide], the IC50 in the experiment on senescent A549 cells and in the experiment on senescent HEPG2 cells was 0.1 to 10 nM each time. Moreover, the “effect of pre-treatment on compound 21 dependent depletion of GPX4 protein” value on GPX4 is recorded as “reduces the compound 21 dependent depletion of GPX4 protein”. For the same compound, the “cellular lipid peroxidation (oxidized BODIPY 581/591 C11 signal)” value with A549 cells is on record as “induced markers of cellular lipid peroxidation”.

In general, IC50 refers to the concentration that gives 50% inhibition.

(Values after patent publication US12485132B2, “GPX4 inhibitors and senolytic compounds and uses thereof” (Rubedo Life Sciences, Inc., priority 2023, dated 2025).)
